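Protocol summary: plate cells (96-well), add compound at 5 concentrations, incubate 48 h, interpolate endpoints linearly. GI50 marks 50% less growth. At the TGI there is no net growth.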
Experiments:
Test in all cases: inhibition of tumour cell growth, NCI panel, 48 h
SNB-75 CNS = system: SNB-75 CNS
T-47D breast = system: T-47D breast
LOX IMVI melanoma = system: LOX IMVI melanoma
MOLT-4 leukemia = system: MOLT-4 leukemia
HOP-62 NSCLC = system: HOP-62 NSCLC
SF-539 CNS = system: SF-539 CNS
HS 578T breast = system: HS 578T breast
SF-295 CNS = system: SF-295 CNS
SK-MEL-28 melanoma = system: SK-MEL-28 melanoma
M14 melanoma = system: M14 melanoma
OVCAR-3 ovarian = system: OVCAR-3 ovarian
SN12C renal = system: SN12C renal
NCI/ADR-RES ovarian = system: NCI/ADR-RES ovarian
RPMI-8226 leukemia = system: RPMI-8226 leukemia
UACC-62 melanoma = system: UACC-62 melanoma
NCI-H522 lung = system: NCI-H522 lung
HL-60(TB) leukemia = system: HL-60(TB) leukemia
UO-31 renal = system: UO-31 renal
IGROV1 ovarian = system: IGROV1 ovarian
HOP-92 NSCLC = system: HOP-92 NSCLC
SK-MEL-5 melanoma = system: SK-MEL-5 melanoma
MDA-MB-231 breast = system: MDA-MB-231 breast
CAKI-1 renal = system: CAKI-1 renal
OVCAR-4 ovarian = system: OVCAR-4 ovarian
EKVX NSCLC = system: EKVX NSCLC
NCI-H460 lung = system: NCI-H460 lung
BT-549 breast = system: BT-549 breast
786-0 renal = system: 786-0 renal
SR leukemia = system: SR leukemia
SW-620 colon = system: SW-620 colon
MALME-3M melanoma = system: MALME-3M melanoma
CCRF-CEM leukemia = system: CCRF-CEM leukemia
UACC-257 melanoma = system: UACC-257 melanoma
PC-3 prostate = system: PC-3 prostate
MCF7 breast = system: MCF7 breast
KM12 colon = system: KM12 colon
HT29 colon = system: HT29 colon
HCT-116 colon = system: HCT-116 colon
SK-OV-3 ovarian = system: SK-OV-3 ovarian
SF-268 CNS = system: SF-268 CNS
COLO 205 colon = system: COLO 205 colon
MDA-MB-435 = system: MDA-MB-435
A549 NSCLC = system: A549 NSCLC
SNB-19 CNS = system: SNB-19 CNS
NCI-H226 lung = system: NCI-H226 lung
K-562 leukemia = system: K-562 leukemia
U251 CNS = system: U251 CNS
OVCAR-5 ovarian = system: OVCAR-5 ovarian
TK-10 renal = system: TK-10 renal
ACHN renal = system: ACHN renal
HCC-2998 colon = system: HCC-2998 colon
NCI-H23 lung = system: NCI-H23 lung
DU-145 prostate = system: DU-145 prostate
RXF 393 renal = system: RXF 393 renal
OVCAR-8 ovarian = system: OVCAR-8 ovarian
HCT-15 colon = system: HCT-15 colon
SK-MEL-2 melanoma = system: SK-MEL-2 melanoma

Q: Which results are given for `COc1cc(OC)cc(-c2ccc(-c3ccc(C(=N)N)cn3)s2)c1`?
A: GI50 (SNB-75 CNS): 1.44 µM; TGI (SNB-75 CNS): 2.86 µM; GI50 (T-47D breast): 2.1 µM; TGI (T-47D breast): 5.09 µM; GI50 (LOX IMVI melanoma): 1.7 µM; TGI (LOX IMVI melanoma): 3.2 µM; GI50 (MOLT-4 leukemia): 2.55 µM; TGI (MOLT-4 leukemia): 6.39 µM; GI50 (HOP-62 NSCLC): 1.8 µM; TGI (HOP-62 NSCLC): 3.67 µM; GI50 (SF-539 CNS): 1.71 µM; TGI (SF-539 CNS): 3.13 µM; GI50 (HS 578T breast): 1.86 µM; TGI (HS 578T breast): 3.98 µM; GI50 (SF-295 CNS): 1.79 µM; TGI (SF-295 CNS): 3.39 µM; GI50 (SK-MEL-28 melanoma): 1.84 µM; TGI (SK-MEL-28 melanoma): 3.43 µM; GI50 (M14 melanoma): 1.79 µM; TGI (M14 melanoma): 3.47 µM; GI50 (OVCAR-3 ovarian): 1.77 µM; TGI (OVCAR-3 ovarian): 3.2 µM; GI50 (SN12C renal): 1.78 µM; TGI (SN12C renal): 3.8 µM; GI50 (NCI/ADR-RES ovarian): 3.27 µM; TGI (NCI/ADR-RES ovarian): 11.6 µM; GI50 (RPMI-8226 leukemia): 2.46 µM; TGI (RPMI-8226 leukemia): 5.51 µM; GI50 (UACC-62 melanoma): 1.85 µM; TGI (UACC-62 melanoma): 3.54 µM; GI50 (NCI-H522 lung): 2.27 µM; TGI (NCI-H522 lung): 5.59 µM; GI50 (HL-60(TB) leukemia): 2.06 µM; TGI (HL-60(TB) leukemia): 4.48 µM; GI50 (UO-31 renal): 1.65 µM; TGI (UO-31 renal): 3.31 µM; GI50 (IGROV1 ovarian): 1.9 µM; TGI (IGROV1 ovarian): 3.73 µM; GI50 (HOP-92 NSCLC): 1.7 µM; TGI (HOP-92 NSCLC): 3.52 µM; GI50 (SK-MEL-5 melanoma): 1.77 µM; TGI (SK-MEL-5 melanoma): 3.16 µM; GI50 (MDA-MB-231 breast): 1.79 µM; TGI (MDA-MB-231 breast): 3.51 µM; GI50 (CAKI-1 renal): 1.73 µM; TGI (CAKI-1 renal): 3.2 µM; GI50 (OVCAR-4 ovarian): 1.9 µM; TGI (OVCAR-4 ovarian): 3.64 µM; GI50 (EKVX NSCLC): 2.58 µM; TGI (EKVX NSCLC): 7.17 µM; GI50 (NCI-H460 lung): 1.87 µM; TGI (NCI-H460 lung): 3.45 µM; GI50 (BT-549 breast): 10.5 µM; TGI (BT-549 breast): 26.4 µM; GI50 (786-0 renal): 1.98 µM; TGI (786-0 renal): 3.72 µM; GI50 (SR leukemia): 3.51 µM; TGI (SR leukemia): 10.9 µM; GI50 (SW-620 colon): 1.91 µM; TGI (SW-620 colon): 3.8 µM; GI50 (MALME-3M melanoma): 1.87 µM; TGI (MALME-3M melanoma): 3.56 µM; GI50 (CCRF-CEM leukemia): 2.71 µM; TGI (CCRF-CEM leukemia): 7.29 µM; GI50 (UACC-257 melanoma): 2.29 µM; TGI (UACC-257 melanoma): 4.49 µM; GI50 (PC-3 prostate): 1.88 µM; TGI (PC-3 prostate): 3.63 µM; GI50 (MCF7 breast): 1.77 µM; TGI (MCF7 breast): 3.6 µM; GI50 (KM12 colon): 1.84 µM; TGI (KM12 colon): 3.48 µM; GI50 (HT29 colon): 2.11 µM; TGI (HT29 colon): 4.89 µM; GI50 (HCT-116 colon): 1.9 µM; TGI (HCT-116 colon): 3.64 µM; GI50 (SK-OV-3 ovarian): 11.3 µM; TGI (SK-OV-3 ovarian): 26.2 µM; GI50 (SF-268 CNS): 1.73 µM; TGI (SF-268 CNS): 3.35 µM; GI50 (COLO 205 colon): 2.11 µM; TGI (COLO 205 colon): 4.62 µM; GI50 (MDA-MB-435): 1.73 µM; TGI (MDA-MB-435): 3.15 µM; GI50 (A549 NSCLC): 2.19 µM; TGI (A549 NSCLC): 4.69 µM; GI50 (SNB-19 CNS): 1.8 µM; TGI (SNB-19 CNS): 3.59 µM; GI50 (NCI-H226 lung): 10.1 µM; TGI (NCI-H226 lung): 27.8 µM; GI50 (K-562 leukemia): 2.22 µM; TGI (K-562 leukemia): 6.19 µM; GI50 (U251 CNS): 1.8 µM; TGI (U251 CNS): 3.49 µM; GI50 (OVCAR-5 ovarian): 1.69 µM; TGI (OVCAR-5 ovarian): 3.13 µM; GI50 (TK-10 renal): 2.06 µM; TGI (TK-10 renal): 4.09 µM; GI50 (ACHN renal): 1.81 µM; TGI (ACHN renal): 3.2 µM; GI50 (HCC-2998 colon): 1.84 µM; TGI (HCC-2998 colon): 3.48 µM; GI50 (NCI-H23 lung): 1.78 µM; TGI (NCI-H23 lung): 3.5 µM; GI50 (DU-145 prostate): 1.79 µM; TGI (DU-145 prostate): 3.22 µM; GI50 (RXF 393 renal): 1.83 µM; TGI (RXF 393 renal): 3.34 µM; GI50 (OVCAR-8 ovarian): 2.3 µM; TGI (OVCAR-8 ovarian): 5.3 µM; GI50 (HCT-15 colon): 1.81 µM; TGI (HCT-15 colon): 3.49 µM; GI50 (SK-MEL-2 melanoma): 19.5 µM; TGI (SK-MEL-2 melanoma): 40.3 µM

Source: PubChem BioAssay (NCI)
